Legend:
hERG channel = target: T1, hERG channel (Homo sapiens, UniProt Q12809); assay: Patch clamp assay to test the effect of compound on hERG channel; type: cell-based; settings: manual patch clamp, HEK 293 cells expressed with hERG, concentration for half maximum effect
T1 construct: expressed in transfected cells; host or cells: HEK-293
Procedure: 10 mL extracellular solution was used to dilute the stock solution, making the final concentrations of test compound were 0.3 μM, 1 μM, 3 μM, 10 μM and 30 μM.
The solubility of compound was visually observed.
The cell line was derived from HEK-293 cells, and grown in a humidified environment at 37° C. under 5% CO2, using the media formulation below. The cell line should not be allowed to exceed 80% confluence within the culture vessel to prevent contact inhibition causing senescence and should thus be passaged every 3/4 days using a seeding density of 2*10^6 cells per T175 flask. Cell lines were be pre-washed with phosphate buffered saline before harvesting with Trypsin/EDTA and seeded into new flasks.
HEK 293 cells expressed with hERG were plated on cover slips overnight with the cell density less than 50% of confluence. Cells used for electrophysiological study were transferred to a small cell bath (1 mL) mounted on the stage of an inverted microscope (Diaphot, Nikon) and were perfused with external solution containing (in mM) 130 NaCl, 4 KCl, 1.8 CaCl2), 1 MgCl2, 10 glucose and 10 HEPES (pH 7.4 with NaOH), the perfusion rate was 4 mL/min. The internal pipette solution contained (in mM) 130 KCl, 1 MgCl2, 5 ethylene glycol-bis(baminoethyl ether)-N,N,N8,N8-tetraacetic acid, 5 MgATP and 10 HEPES (pH 7.2 with KOH). An HEKA EPC-10 patch-clamp amplifier and PATCHMASTER acquisition program were used to record membrane currents (HEKA Instruments IncD-67466 Lambrecht/Pfalz Germany). All experiments were performed at room temperature (22-23° C.).
The Model P-97 micropipette puller (Sutter Instrument Company, One Digital Drive, Novato, Calif. 94949) was used to pull glass patch pipettes (BF150-86-10) in all experiments.
The experiments were initiated with a 2 min vehicle control period after forming a whole cell configuration with less 5% run-down in 5 min and the tail currents in the report were at least greater than 500 pA. After a 2 min vehicle control period, the perfusion was switched to the reservoir containing the compound at the first concentration. The same procedure was repeated 3-5 times so that each cell was exposed to 4-6 escalating concentrations of compound. The time courses for block and unblock of hERG during compounds exposure and washout were continuously recorded.
The peak tail of hERG was generated by applying 2-sec depolarizing every 12 sec steps from a holding potential of −80 mV, the peak of tail currents were measured at a 5-sec repolarizing pulse at −50 mV.
hERG peak tail currents were directly measured from a 5 sec repolarization pulse at −50 mV. The fraction of control current was plotted as a function of logarithm of compound concentration. To determine the concentration of compound for halfmaximum effect, the concentration-response curve was fitted by Hill equation as shown follow.
where Y is the observed value, Bottom is the lowest observed value (0), Top is the highest observed value (1), and the Hillcoefficient gives the largest absolute value of the slope of the curve.
Data were analyzed by a combination of PATCHMASTER ((HEKA Instruments IncD-67466 Lambrecht/Pfalz Germany) and Origin (OriginLab Corporation, Northampton, Mass.) software programs.
Data were expressed as mean±SEM.

[1] = system: lung cancer NCI-H358 cell; assay: Cell proliferation assay (CellTiter-Glo), NCI-H358; type: cell-based; settings: Homo sapiens; NCI-H358, 96 hrs, CTG; class symbols; read-out: Compound on NCI-H358 cell IC50
Procedure: (§1) The effects of the compounds on the proliferation of leukemia MV-4-11 cell and lung cancer NCI-H358 cell were evaluated by in vitro cell test. The assay used in this study was the CELL TITER-GLO (CTG) luminescence assay, which can detect the number of living cells by quantitative determination of ATP. Because ATP is involved in a variety of enzymatic reactions in vivo and is an indicator of the metabolism of living cells, its content can directly reflects the number and state of cells. During the experiment, Celltiter-Glo™ reagent was added to the cell culture medium to measure the luminescence value. The luminescence value was proportional to the amount of ATP, which in turn was positively correlated with the number of living cells. Therefore, ATP content can be used to detect cell viability.
A bottle of NCI-H358 cells in logarithmic growth phase was taken, the cells were digested and resuspend, counted, and then the cell density was adjusted. After that, the cells were inoculated into a 96-well Ultra-Low Attachment Microplate (Corning #3474), 2000 cells were inoculated in each well, and the well plate was placed in an incubator at 37° C. and 5% CO2, and the compounds of the invention were added for conducting.
(§2) An appropriate amount of the compound of the invention was taken for cell treatment, and the final concentration of the compound from high to low was 1000 nM, 333.3 nM, 111.1 nM, 37.04 nM, 12.35 nM, 4.115 nM, 1.372 nm, 0.4572 nM, 0.1524 nM, 0 nM, respectively. The orifice plate was cultured in an incubator at 37° C. and 5% CO2. Only adding medium without adding cell hole was set as blank group. Compound concentration of 0 nM group was zero control group.
NCI-H358 cells were cultured for 96 hrs, then 50 μL CellTiter-Glo® Luminescent cell viability assay solution was added to each well, and the cells were gently shaken for 2 mins, and incubated at room temperature for 10 mins. The cell reaction system was transferred to 96-well Microplate (Corning #3917). The detection values of each well were read on the multi-functional microplate reader.
(§3) The inhibition rate is calculated according to the luminous value reading,
(§4) Inhibition rate %=(1−(administration group value−blank group value)/(control group value−blank group value)*100
(§5) The log (inhibitor) vs. response variable slope of GraphPad Prism was used to fit the dose-response curve and calculate the IC50 of compounds inhibiting cell proliferation.

leukemia MV-4-11 cell = assay: Cell proliferation assay (CellTiter-Glo), MV-4-11; type: cell-based; settings: Homo sapiens, MV4-11; MV-4-11, 120 hrs, CTG; class symbols; read-out: Compound on MV-4-11 cell IC50
Procedure: as §1
A bottle of MV-4-11 cells in logarithmic growth phase was taken, the cells were collected, centrifuged, resuspend, counted, and then inoculated into 96-well Microplate (Corning #3917), with 4000 cells inoculated in each well. The plates were placed in an incubator at 37° C. and 5% CO2 for 24 hrs culture, and the compounds of the invention were added for conducting.
as §2
After cultured for 120 hrs, MV-4-11 cells were added with 50 μL CellTiter-Glo® Luminescent cell viability assay solution in each well, gently shaken for 2 mins, and incubated at room temperature for 10 mins. The detection values of each well were read on the multi-functional microplate reader.
as §3, §4, §5

SHP2 = target: T2, SHP2 (Homo sapiens, UniProt Q06124); assay: SHP2 allosteric inhibitor enzyme activity assay (DiFMUP fluorescence); type: biochemical
T2 sequence (Q06124 1-593): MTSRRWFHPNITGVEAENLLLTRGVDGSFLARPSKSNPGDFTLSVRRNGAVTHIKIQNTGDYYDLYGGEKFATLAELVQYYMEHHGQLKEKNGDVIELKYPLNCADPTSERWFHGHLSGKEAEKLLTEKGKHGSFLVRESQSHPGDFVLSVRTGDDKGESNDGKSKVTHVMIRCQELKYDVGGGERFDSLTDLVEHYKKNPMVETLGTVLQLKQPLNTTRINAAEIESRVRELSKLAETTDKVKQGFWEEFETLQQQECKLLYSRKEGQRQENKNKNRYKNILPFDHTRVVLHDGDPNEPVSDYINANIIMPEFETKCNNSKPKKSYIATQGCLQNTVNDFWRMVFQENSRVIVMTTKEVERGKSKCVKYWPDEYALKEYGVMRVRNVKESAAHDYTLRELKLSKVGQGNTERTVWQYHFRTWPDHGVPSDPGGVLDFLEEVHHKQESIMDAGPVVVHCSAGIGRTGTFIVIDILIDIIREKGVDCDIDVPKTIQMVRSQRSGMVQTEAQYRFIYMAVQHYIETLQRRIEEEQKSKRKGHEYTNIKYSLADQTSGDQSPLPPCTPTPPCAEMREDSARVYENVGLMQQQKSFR
In short: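 SHP2 activated by 0.5 μM IRS1_pY1172(dPEG8)pY1222 peptide, 0.2 ng enzyme per well, 1 h at room temperature with compound (1 μM top, 3-fold series), then DiFMUP substrate 1 h. Buffer: 60 mM HEPES, 75 mM NaCl, 75 mM KCl, 0.05% BRIJ-35, 1 mM EDTA, 5 mM DTT. Fluorescence ex 340/em 450 nm; IC50 by variable-slope fit.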

T1 sequence (Q12809 whole entry): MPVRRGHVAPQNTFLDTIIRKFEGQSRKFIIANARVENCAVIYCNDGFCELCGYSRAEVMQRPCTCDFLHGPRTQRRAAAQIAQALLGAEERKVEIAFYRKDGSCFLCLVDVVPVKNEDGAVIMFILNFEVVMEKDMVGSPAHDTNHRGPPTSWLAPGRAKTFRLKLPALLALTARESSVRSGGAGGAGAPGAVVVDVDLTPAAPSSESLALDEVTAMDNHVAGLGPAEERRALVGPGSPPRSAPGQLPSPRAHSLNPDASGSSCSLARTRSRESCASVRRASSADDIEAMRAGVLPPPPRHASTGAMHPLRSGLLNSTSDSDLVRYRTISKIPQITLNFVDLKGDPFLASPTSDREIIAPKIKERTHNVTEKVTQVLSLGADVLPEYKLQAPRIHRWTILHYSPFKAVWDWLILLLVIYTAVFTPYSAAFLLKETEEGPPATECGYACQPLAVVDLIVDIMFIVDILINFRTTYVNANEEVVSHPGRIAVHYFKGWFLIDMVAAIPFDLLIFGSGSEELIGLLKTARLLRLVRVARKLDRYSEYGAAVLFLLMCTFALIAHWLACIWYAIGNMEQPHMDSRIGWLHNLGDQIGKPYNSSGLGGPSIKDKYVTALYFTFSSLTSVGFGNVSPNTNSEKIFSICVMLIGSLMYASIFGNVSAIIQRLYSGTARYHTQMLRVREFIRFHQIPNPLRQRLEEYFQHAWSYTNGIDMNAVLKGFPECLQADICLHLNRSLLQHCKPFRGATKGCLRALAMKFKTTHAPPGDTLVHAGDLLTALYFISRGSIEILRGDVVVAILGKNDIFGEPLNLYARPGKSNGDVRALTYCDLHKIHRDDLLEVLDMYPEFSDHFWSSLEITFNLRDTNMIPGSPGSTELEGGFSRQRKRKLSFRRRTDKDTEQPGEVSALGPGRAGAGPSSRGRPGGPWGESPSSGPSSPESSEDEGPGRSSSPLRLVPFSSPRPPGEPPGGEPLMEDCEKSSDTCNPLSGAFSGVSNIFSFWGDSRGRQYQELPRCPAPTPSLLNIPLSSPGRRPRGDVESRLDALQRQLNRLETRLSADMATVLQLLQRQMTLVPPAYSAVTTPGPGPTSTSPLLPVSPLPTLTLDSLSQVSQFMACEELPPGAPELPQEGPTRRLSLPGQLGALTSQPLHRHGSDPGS

| SMILES | IC50 (hERG channel) | IC50 [1] | IC50 (leukemia MV-4-11 cell) | IC50 (SHP2; numeric values) | IC50 (SHP2; class symbols) |
| --- | --- | --- | --- | --- | --- |
| COc1ccc(C2(c3n[nH]c4nc(N5CCC6(CC5)Cc5ccccc5[C@H]6N)[nH]c(=O)c34)CC2)cc1 [Example 19, (S)-6-(1-amino-1,3-dihydrospiro[indene-2,4′-piperidin]-1′-yl)-3-(1-(4-methoxyphenyl)cyclopropyl)-1,5-dihydro-4H-pyrazolo[3,4-d]pyrimidin-4-one] | 11700 nM | 20 to 60 nM | ≤ 20 nM | – | – |
| N[C@@H]1c2ccccc2CC12CCN(c1nc3[nH]nc(C4(c5cccc(-n6cccn6)c5)CC4)c3c(=O)[nH]1)CC2 [Example 38, (S)-3-(1-(3-(1H-pyrazol-1-yl)phenyl)cyclopropyl)-6-(1-amino-1,3-dihydrospiro[indene-2,4′-piperidin]-1′-yl)-1,5-dihydro-4H-pyrazolo[3,4-d]pyrimidin-4-one] | 14200 nM | – | – | 3.1 nM | – |
| N[C@@H]1c2ccccc2CC12CCN(c1nc3[nH]nc(C4(c5cccc(O)c5)CC4)c3c(=O)[nH]1)CC2 [Example 42, (S)-6-(1-amino-1,3-dihydrospiro[indene-2,4′-piperidin]-1′-yl)-3-(1-(3-hydroxyphenyl)cyclopropyl)-1,5-dihydro-4H-pyrazolo[3,4-d]pyrimidin-4-one] | > 30000 nM | – | – | 1.9 nM | – |
| N[C@@H]1c2ccccc2CC12CCN(c1nc3[nH]nc(C4(c5ccccc5)CCC4)c3c(=O)[nH]1)CC2 [Example 90] | 4950 nM | – | – | – | ≤ 20 nM |
| N[C@@H]1c2ccccc2CC12CCN(c1nc3[nH]nc([C@H]4C[C@@H]4c4ccccc4)c3c(=O)[nH]1)CC2 [Example 185] | 590 nM | – | – | 0.48 nM | – |
| CCC(c1ccccc1)c1n[nH]c2nc(N3CCC4(CC3)Cc3ccccc3[C@H]4N)[nH]c(=O)c12 (stereo partly drawn) [Example 217, 6-((S)-1-amino-1,3-dihydrospiro[indene-2,4′-piperidin]-1′-yl)-3-(1-phenylpropyl)-1,5-dihydro-4H-pyrazolo[3,4-d]pyrimidin-4-one] | 540 nM | – | – | – | ≤ 20 nM |
| COc1ccc(C2(c3n[nH]c4nc(N5CCC6(CC5)Cc5ccccc5[C@H]6N)[nH]c(=O)c34)CC2)cc1OC [Example 221, (S)-6-(1-amino-1,3-dihydrospiro[indene-2,4′-piperidin]-1′-yl)-3-(1-(3,4-dimethoxyphenyl)cyclopropyl)-1,5-dihydro-4H-pyrazolo[3,4-d]pyrimidin-4-one] | > 30000 nM | – | – | – | ≤ 20 nM |
| CCOC(=O)Nc1ccc(C2(c3n[nH]c4nc(N5CCC6(CC5)Cc5ccccc5[C@H]6N)[nH]c(=O)c34)CC2)cc1 [Example 231, ethyl (S)-(4-(1-(6-(1-amino-1,3-dihydrospiro[indene-2,4′-piperidin]-1′-yl)-4-oxo-4,5-dihydro-1H-pyrazolo[3,4-d]pyrimidin-3-yl)cyclopropyl)phenyl)carbamate] | 7500 nM | 20 to 60 nM | ≤ 20 nM | – | – |
| N[C@@H]1c2ccccc2CC12CCN(c1nc3[nH]nc(C4(c5nc6ccccc6o5)CC4)c3c(=O)[nH]1)CC2 [Example 252, (S)-6-(1-amino-1,3-dihydrospiro[indene-2,4′-piperidin]-1′-yl)-3-(1-(benzo[d]oxazol-2-yl)cyclopropyl)-1,5-dihydro-4H-pyrazolo[3,4-d]pyrimidin-4-one] | 20900 nM | – | – | – | ≤ 20 nM |
| N[C@@H]1c2ccccc2CC12CCN(c1nc3[nH]nc(C4(n5cccn5)CC4)c3c(=O)[nH]1)CC2 [Example 255, (S)-3-(1-(1H-pyrazol-1-yl)cyclopropyl)-6-(1-amino-1,3-dihydrospiro[indene-2,4′-piperidin]-1′-yl)-1,5-dihydro-4H-pyrazolo[3,4-d]pyrimidin-4-one] | > 30000 nM | – | – | – | – |

From patent US20230192705A1, “SHP2 INHIBITORS, COMPOSITIONS AND USES THEREOF” (Betta Pharmaceuticals Co., Ltd, priority 2020, published 2023)
